Assay results published in US20040023299A1, “Diagnosis of liver disease” (priority 2000, published 2004).
Where two headings read alike, the source gives them in different places.

Settings: rats
Description: Chronic liver disease was established by exposing the animals of the 3 experimental groups to weekly intra-gastric administration of CCl4. A starting dose of 80 μl was used and increased weekly, based on the weight of the animals. Nothing was administered to the control group. All the animals were weighed on day one and the experimental groups started with their 80 μl CCl4. After three days the animals were again weighed to determine the dose for the second week. That was the procedure for the administration of the CC4 l during the entire experiment. On day three of week five, the scanning of group 1 started. Anaesthesia in each case was induced with an intraperitoneal injection of sodium pentobarbitone 6% solution (Sagatal, Kryon Laboratories Pty Ltd., Benrose, Gauteng, S. A). […] After the completion of the acquisition, the rats were terminated by an intravenous overdose of sodium pentobarbitone. The livers were taken out, stored in a 10% formalin solution until the next day and then processed and stained with Haematoxylin and Eosin, Reticulin and Cyrus red.
Liver sections of the rats were stained with H&E, Masson Trichrome and Reticulin stains. The amount of necrosis and fibrosis were interpreted by an experienced hepatopathologist and scored according to a classification system whereby 1 was mild necrosis or fibrosis and 4 severe.

[1] = weekly intra-gastric CCl4, after 5 weeks
[2] = weekly intra-gastric CCl4, after 7 weeks
[3] = weekly intra-gastric CCl4, after 9 weeks

ClC(Cl)(Cl)Cl [CCl4]
average score for fibrosis (1 mild, 4 severe) [1]: 1.9 | average score for necrosis (1 mild, 4 severe) [1]: 1.9 | average score for fibrosis (1 mild, 4 severe) [2]: 1.9 | average score for necrosis (1 mild, 4 severe) [2]: 1.7 | average score for fibrosis (1 mild, 4 severe) [3]: 2.1 | average score for necrosis (1 mild, 4 severe) [3]: 1.4
